Data reported in patent US7220745B2, “Heterocyclic compounds useful to treat HCV” (Rigel Pharmaceuticals, priority 2003, dated 2007).

Tested on: HCV replicon
Test: HCV replicon assay (luciferase, 5-2 Luc replicon cells)
Assay type: cell-based
Conditions: Hepatitis C virus, 24 hours with compound, luciferase activity
Excerpt: In one embodiment, the inhibitory activity of the compounds can be confirmed in a replicon assay that assesses the ability of a test compound to block or inhibit HCV replication in replicon cells. One example of a suitable replicon assay is the liver cell-line Huh 7-based replicon assay described in Lohmann et al., 1999, Science 285:110–113. A specific example of this replicon assay which utilizes luciferase translation is provided in the Examples Section. In one embodiment of this assay, the amount of test compound that yields a 50% reduction in translation as compared to a control cell (IC50) may be determined.
The inhibitory activity of certain exemplary compounds of the invention was confirmed using an HCV replicon assay. The HCV replicon can include such features as the HCV 5′ untranslated region including the HCV IRES, the HCV 3′ untranslated region, selected HCV genes encoding HCV polypeptides, selectable markers, and a reporter gene such as luciferase, GFP, etc. In the assay, actively dividing 5–2 Luc replicon-comprising cells (obtained from Ralf Bartenschlager; see Lohmann et al., 1999, Science 285:110–113) were seeded at a density of between about 5,000 and 7,500 cells/well onto 96 well plates (about 90 μl of cells per well) and incubated at 37° C. and 5% CO2 for 24 hours. Then, the test compound (in a volume of about 10 μl) was added to the wells at various concentrations and the cells were incubated for an additional 24 hours before luciferase assay. Briefly, the Bright-Glo reagent was diluted 1:1 with PBS and 100 μl of diluted reagent was added to each well. After 5 min of incubation at room temperature, luciferin emission was quantified with a luminometer. In this assay, the amount of test compound that yielded a 50% reduction in luciferase activity (IC50) was determined.

| Structure (SMILES) | IC50 [µM] |
| --- | --- |
| O=C(Nc1ccc(-c2cc(-c3c(F)cccc3F)no2)cc1)C(Cl)Cl [Compound 59, 2,2-Dichloro-N-[4-[3-(2,6-difluorophenyl)-5-isoxazolyl]phenyl]Acetamide] | ≤ 10 |
| O=C(Nc1ccc(-c2cc(-c3c(Cl)cccc3Cl)no2)cc1)C(Cl)Cl [Compound 60, 2,2-Dichloro-N-[4-[3-(2,6-dichlorophenyl)-5-isoxazolyl]phenyl]Acetamide] | > 10 |
| O=[N+]([O-])c1cccc(-c2cnc(-c3c(Cl)cccc3Cl)s2)c1 [Compound 17, 2-(2,6-dichlorophenyl)-5-(3-nitrophenyl)thiazole] | > 10 |
| O=C(Nc1cccc(-c2cc(-c3c(Cl)cccc3Cl)on2)c1)C(Cl)Cl [Compound 39, 2,2-Dichloro-N-[3-[5-(2,6-dichlorophenyl)-3-isoxazolyl]phenyl]Acetamide] | < 10 |
| O=C(Nc1cccc(-c2cnc(-c3c(Cl)cccc3Cl)s2)c1)C(Cl)Cl [Compound 19, 2,2-Dichloro-N-[3-[2-(2,6-dichlorophenyl)-5-thiazolyl]phenyl]Acetamide] | > 10 |
| O=C(Nc1ccccc1-c1cc(-c2c(Cl)cccc2Cl)no1)C(Cl)Cl [Compound 18, 2,2-Dichloro-N-[2-[3-(2,6-dichlorophenyl)-5-isoxazolyl]phenyl]Acetamide] | > 10 |
| Nc1cccc(-c2cnc(-c3c(Cl)cccc3Cl)s2)c1 [Compound 20, 2-(2,6-dichlorophenyl)-5-(3-aminophenyl)thiazole] | > 10 |
| O=C(Nc1ccc(-c2cc(-c3ccccc3Cl)no2)cc1)C(Cl)Cl [Compound 55, 2,2-Dichloro-N-[4-[3-(2-chlorophenyl)-5-isoxazolyl]phenyl]Acetamide] | ≤ 10 |
